Results taken from patent publication US20260263402A1, “SYNERGISTIC COMBINATIONS OF REGULATED NECROSIS INHIBITORS WITH N-ACETYLCYSTEINE” (priority 2022, published 2026).

What was measured:
[1] = system: SH-SY5Y cells; assay: Cell viability (MTS) of SH-SY5Y cells treated with erastin (ferroptosis), neurotoxicity model; type: cell-based, Human; details: 10 μM erastin 24 h
Experimental: (§1) The SH-SY5Y neuronal cells (Human Neuroblastoma Cell line) and HT-22 cells (Mouse Hippocampal Neuronal Cell line) were maintained in standard DMEM with GlutaMAX medium (GIBCO), supplemented with 10% fetal bovine serum (GIBCO), at 37° C. in presence of 5% CO2.
(§2) SH-SY5Y, LLC-PK1, ARPE-19 and HT22 cells were seeded in 96-well plates at a density of 10 000 or 5000 cells per well respectively, following overnight incubation. Cells were treated with 10 μM (SH-SY5Y cells) or 0.5 μM (HT22 cells) of erastin or 2 μM of RSL3 (LLCPK1) or 10 mM of sodium iodate (ARPE-19 cells) for 24 h.
(§3) Erastin and RSL3 was purchased from Selleck Chemical and sodium iodate from Sigma Aldrich. Cell viability was assessed by MTS assay (CellTiter 96@D AQueous Non-Radioactive Cell Proliferation Assay; Promega, Fitchburg, WI, USA) according to the manufacturer's instructions. This assay is based on the reduction of the 3-(4,5-dimethylthiazol-2-yl)-5-(3-carboxymethoxyphenyl)-2-(4-sulfophenyl)-2H-tetrazolium (MTS) by viable cells to form a colored formazan product. After treatment, cells were incubated 3 h at 37° C., 5% CO2 with MTS. The absorbance was measured using a microplate reader at 490 and 630 nm and the percentage of viability was calculated by dividing the absorbance of testing compound by the absorbance of DMSO treated cells (control).
(§4) Cells (HT-22, SHSY-5Y, LLC-PK1 and ARPE 19) were seeded in a 96-well plate in their respective medium overnight. The next day they were treated with NAC or a derivative thereof including NACA or N-acetylcysteine ethyl ester (compound A), with inhibitor compound (compound B) or with a combination of the two compounds. The analysis of the effects of the combination of the association of compound A (NAC or a derivative thereof including NACA and N-acetylcysteine ethyl ester) with another compound B is based on the independence model of Bliss. In this approach, the effect of compound alone (EA or EB) or in combination is expressed as a probability (0≤E≤1). The combined effect of the compounds is defined by:
(§5) wherein EA and EB represent the effects of compound A and compound B respectively, and EAB the combined effect of the combination of A and B (expected effect on histogram). Calculation index CI is calculated as follows: CI=(EA+EB−EA*EB)/EAB wherein CI is synergistic, antagonistic or additive when CI is under, above or equal to 1 respectively [Duarte et al., Current Research in Pharmacology and Drug Discovery, 2022].
Cell death by ferroptosis was induced by erastin [Dixon et al., Cell, 2012, 149(5), 1060-1072] in both cell lines. Erastin is a well described ferroptosis inducer and also a molecular tool to study neuronal pathologies [Lewerenz et al., Front. Neurosci., 2018, 12: 214].

[2] = system: HT-22 cells; assay: Cell viability (MTS) of HT22 cells treated with erastin (ferroptosis), neurotoxicity model; type: cell-based, Mouse; details: 0.5 μM erastin 24 h
Experimental: as §1, §2, §3
Cells (HT-22, SHSY-5Y, LLC-PK1 and ARPE 19) were seeded in a 96-well plate in their respective medium overnight. […] In this approach, the effect of compound alone (EA or EB) or in combination is expressed as a probability (0≤E≤1). […]
as §5, with “2022]. […]” for “2022].”

[3] = system: LLC-PK1 cells; assay: Cell viability (MTS) of LLC-PK1 cells treated with RSL3; type: cell-based, Pig; details: 2 μM RSL3 24 h
Experimental: The LLC-PK1 cells (Pig Kidney Epithelial cells) were cultured in DMEM/F12(GIBCO), supplemented with 10% fetal bovine serum (GIBCO), at 37° C. in presence of 5% CO2.
as §2, §3
Cells (HT-22, SHSY-5Y, LLC-PK1 and ARPE 19) were seeded in a 96-well plate in their respective medium overnight. The next day they were treated with NAC or a derivative thereof including NACA or N-acetylcysteine ethyl ester (compound A), with inhibitor compound (compound B) or with a combination of the two compounds. […] In this approach, the effect of compound alone (EA or EB) or in combination is expressed as a probability (0≤E≤1). […]
as §5

[4] = system: mice model of APAP intoxication; assay: In vivo mice model of APAP intoxication, plasma ALT; parameters: species or system C57Bl/6J male mice; details: for ALT plasma level: 8 h after APAP, APAP only ~3000, control ~100 IU/L
Experimental: Nine-week-old C57Bl/6J male mice were purchased from Janvier Labs (Le Genest St Isle, France). After one week of acclimatization in the animal house, mice were fasted overnight before experimentation. Acetaminophen (APAP) was purchased from Sigma-Aldrich (A70-85-100 g, batch #SCLF8273) and diluted at 20 mg/mL in PBS (preheated at 45° C.). Acetaminophen intoxication was induced in mice by intraperitoneal (i.p.) injection of APAP (400 mg/kg). One hour after APAP injection, mice were treated with inhibitors by intraperitoneal injection. N-acetylcysteine (NAC, A9165-25 g, Sigma-Aldrich, batch #SLCJ1628), the reference treatment for paracetamol intoxication, was diluted at 40 mg/mL in PBS Tween80 5% and injected via intraperitoneal route at a dose of 200 mg/kg. Compound 7 was diluted at 1 mg/ml or 2 mg/ml in PBS Tween80 5% and injected by intraperitoneal injection with increasing concentrations (2.5, 5 or 10 mg/kg) or in combination with NAC (200 mg/kg). There were two groups of control mice: the first one was injected via i.p. route with PBS Tween80 5% (Tween80 5%) and the second group, treated with APAP, was administered one hour after APAP with PBS Tween80 5% (APAP-Tween80 5%) via i.p.. Mice were slaughtered eight hours after APAP injection. Blood and liver were collected.
Serum alanine aminotransferase (ALT) plasma levels were measured according to the International Federation of Clinical Chemistry and Laboratory Medicine primary reference procedures using an Olympus AU2700 Autoanalyser (Olympus Optical).
Results were expressed as means SEM. Mean differences between two experimental groups were assessed using the non-parametric Mann-Whitney U-test. […] Calculated P values are integrated on histograms and graphs. Significance is shown as follows: $ P<0.05, $$ P<0.01, $$$ P<0.001 and $$$ P<0.0001 (comparison between APAP mice and APAP mice treated with NAC and/or compound 7); * P<0.05, ** P<0.01, *** P<0.001 and **** P<0.0001 (comparison between treated groups).
Nine Groups of Mice were Studied: • Tween80 5%, n=15 • APAP (400 mg/kg)+Tween 80 5%, n=31 • APAP (400 mg/kg)+NAC (200 mg/kg), n=15 • APAP (400 mg/kg)+compound 7 (2.5 mg/kg), n=23 • APAP (400 mg/kg)+compound 7 (5 mg/kg), n=21 • APAP (400 mg/kg)+compound 7 (10 mg/kg), n=21 • APAP (400 mg/kg)+compound 7 (2.5 mg/kg)+(NAC 200 mg/kg), n=9 • APAP (400 mg/kg)+compound 7 (5 mg/kg)+NAC (200 mg/kg), n=9 • APAP (400 mg/kg)+compound 7 (10 mg/kg)+NAC (200 mg/kg), n=13

[5] = system: ARPE-19 cells; assay: Cell viability (MTS) of ARPE-19 cells treated with sodium iodate, model of eye disease; type: cell-based, Human; details: 10 mM sodium iodate 24 h
Experimental: The ARPE-19 cells (Human Retinal pigment epithelial cell line) were cultured in standard DMEM/F12 medium (GIBCO), supplemented with 10% fetal bovine serum (GIBCO), at 37° C. in presence of 5% CO2.
as §2, §3, §4, §5
Age-related macular degeneration, or AMD, is characterized by vision loss caused by degeneration of the central cells of the retina, called the macula. […] One model used to study retinal cell death is that of human ARPE-19 cells, a retinal pigment epithelial cell line, in the presence of sodium iodate (NaIO3, a potent oxidizing agent) [Hanus et al. Cell Death Discov. 2016, 2, 16054][Chan et al., J. Biomed. Sci., 2019, 26:40].

[6] = NAC 200 mg/kg with compound 7 10 mg/kg i.p. one hour after APAP 400 mg/kg

Oc1ccc(-c2cc3ccccc3[nH]2)cc1 [Compound 1]
effect on viability, combined with NAC (Bliss model) ([1]; FIG. 4, 1 μM cmpd 1 + 100 μM NAC): synergistic effect
effect on viability, compound alone ([1]; FIG. 4, 1 μM cmpd 1 alone): significant effect
effect on viability, combined with N-acetylcysteine ethyl ester (Bliss model) ([1]; FIG. 15, 2.5 μM Compound 1 + 100 μM N-acetylcysteine ethyl ester): synergistic effect
effect on viability, compound alone ([1]; FIG. 15, 2.5 μM Compound 1 alone): significant effect
effect on viability, combined with NAC (Bliss model) ([2]; FIG. 7, 5 μM cmpd 1 + 100 μM NAC): synergistic effect
effect on viability, combined with NAC (Bliss model) ([3]; FIG. 11, 1 μM Compound 1 + 500 μM NAC): synergistic effect

Oc1ccc(-c2cc3cccnc3[nH]2)cc1 [Compound 7, sibiriline]
effect on viability, combined with N-acetylcysteine ethyl ester (Bliss model) ([1]; FIG. 14, 10 μM Compound 7 + 100 μM N-acetylcysteine ethyl ester): synergistic effect
effect on viability, compound alone ([1]; FIG. 14, 10 μM Compound 7 alone): significant effect
effect on viability, combined with NAC (Bliss model) ([2]; FIG. 5, 25 μM cmpd 7 + 100 μM NAC): synergistic effect
protective effect against APAP toxicity, combination versus NAC alone or compound 7 alone ([4]; NAC 200 mg/kg in combination with compound 7 2.5, 5 or 10 mg/kg i.p., FIG. 9a-c): better and synergistic protective effect
protection against APAP toxicity [4, 6]: almost complete protection
ALT plasma level [4, 6]: ~ 200 IU/L
ALT plasma level ([4]; compound 7 10 mg/kg i.p. one hour after APAP 400 mg/kg i.p.): ~ 1000 IU/L
effect on ALT plasma levels, compound alone ([4]; compound 7 2.5, 5 or 10 mg/kg i.p. one hour after APAP 400 mg/kg, maximum effect at 10 mg/kg): reducing ALT plasma levels in a dose-dependent manner
effect on viability, combined with NAC (Bliss model) ([3]; FIG. 10, 2.5 μM Compound 7 + 500 μM NAC): synergistic effect

Oc1ccc(-c2cc3ccc(Cl)nc3[nH]2)cc1 [Compound 37]
effect on viability, combined with NAC (Bliss model) ([2]; FIG. 6, 50 μM cmpd 37 + 100 μM NAC): synergistic effect

NCCOCCOc1ccc(-c2cc3cccnc3[nH]2)cc1 [Compound 45]
effect on viability, combined with NAC (Bliss model) ([5]; FIG. 1, 10 μM cmpd 45 + 100 μM NAC): synergistic effect
effect on viability, compound alone ([5]; FIG. 1, 10 μM cmpd 45 alone): significant effect

COc1cc(O)c2c(c1)OC(O)(c1ccc(OCc3ccccc3)cc1)CC2=O (stereo not shown) [Compound 46]
effect on viability, combined with NAC (Bliss model) ([1]; FIG. 3, 25 μM cmpd 46 + 100 μM NAC): synergistic effect
effect on viability, compound alone ([1]; FIG. 3, 25 μM cmpd 46 alone): significant effect
effect on viability, combined with N-acetylcysteine ethyl ester (Bliss model) ([1]; FIG. 16, 25 μM Compound 46 + 100 μM N-acetylcysteine ethyl ester): synergistic effect
effect on viability, compound alone ([1]; FIG. 16, 25 μM Compound 46 alone): significant effect
effect on viability, combined with NAC (Bliss model) ([3]; FIG. 12, 25 μM Compound 46 + 500 μM NAC): synergistic effect
effect on viability, combined with NAC (Bliss model) ([5]; FIG. 2, 5 μM cmpd 46 + 50 μM NAC): synergistic effect
effect on viability, compound alone ([5]; FIG. 2, 5 μM cmpd 46 alone): significant effect
effect on viability, combined with NACA (Bliss model) ([5]; FIG. 13, 10 μM cmpd 46 + 125 μM NACA): synergistic effect
effect on viability, compound alone ([5]; FIG. 13, 10 μM cmpd 46 alone): significant effect

CC(=O)N[C@@H](CS)C(=O)O [NAC, N-acetylcysteine]
ALT plasma level ([4]; NAC 200 mg/kg i.p. one hour after APAP 400 mg/kg i.p.): ~ 1300 IU/L
